In ChEMBL document CHEMBL1134625 (J Med Chem, 2001):

How the values were obtained:
Substance-K receptor = Substance-K receptor (Homo sapiens, UniProt P21452)
[1] = target: Melatonin receptor type 1A (Homo sapiens, UniProt P48039)
D(1B) dopamine receptor = D(1B) dopamine receptor (Homo sapiens, UniProt P21918)
[2] = target: 5-hydroxytryptamine receptor 1B (Homo sapiens, UniProt P28222)
Vasopressin V1a receptor = Vasopressin V1a receptor (Homo sapiens, UniProt P37288)
Adenosine receptor A1 = Adenosine receptor A1 (Homo sapiens, UniProt P30542)
Chain of Adenosine receptor A1 (P30542 whole entry): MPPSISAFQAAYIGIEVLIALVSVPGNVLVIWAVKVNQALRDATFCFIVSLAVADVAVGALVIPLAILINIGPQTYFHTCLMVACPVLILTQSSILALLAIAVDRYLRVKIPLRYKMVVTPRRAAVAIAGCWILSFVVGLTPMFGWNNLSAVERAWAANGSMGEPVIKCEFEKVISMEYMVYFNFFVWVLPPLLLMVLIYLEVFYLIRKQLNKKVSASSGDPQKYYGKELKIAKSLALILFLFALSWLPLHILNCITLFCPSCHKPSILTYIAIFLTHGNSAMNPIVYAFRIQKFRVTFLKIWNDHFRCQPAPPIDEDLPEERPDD

D(1A) dopamine receptor = D(1A) dopamine receptor (Homo sapiens, UniProt P21728)
Chain of D(1A) dopamine receptor (P21728 whole entry): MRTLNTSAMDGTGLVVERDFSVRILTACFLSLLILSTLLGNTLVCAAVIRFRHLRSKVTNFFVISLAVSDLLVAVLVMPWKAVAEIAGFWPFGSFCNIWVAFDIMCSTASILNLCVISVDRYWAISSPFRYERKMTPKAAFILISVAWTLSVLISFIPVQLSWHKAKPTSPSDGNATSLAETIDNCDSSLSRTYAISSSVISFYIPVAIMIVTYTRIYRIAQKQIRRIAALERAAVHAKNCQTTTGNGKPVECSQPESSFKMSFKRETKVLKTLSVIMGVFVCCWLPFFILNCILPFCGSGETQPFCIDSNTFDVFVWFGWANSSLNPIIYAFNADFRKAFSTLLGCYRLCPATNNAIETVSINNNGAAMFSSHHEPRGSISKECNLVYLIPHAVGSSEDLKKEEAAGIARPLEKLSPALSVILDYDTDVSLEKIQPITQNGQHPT

Translocator protein = Translocator protein (Homo sapiens, UniProt P30536)
Chain of Translocator protein (P30536 whole entry): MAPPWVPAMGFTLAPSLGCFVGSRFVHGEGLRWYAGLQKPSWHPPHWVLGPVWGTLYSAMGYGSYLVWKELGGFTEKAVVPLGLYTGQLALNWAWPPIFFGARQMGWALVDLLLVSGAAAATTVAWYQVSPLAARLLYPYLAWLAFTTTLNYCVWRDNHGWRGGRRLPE

[3] = target: T1, 5-hydroxytryptamine receptor 1A (Homo sapiens, UniProt P08908)
T1 sequence (P08908 whole entry): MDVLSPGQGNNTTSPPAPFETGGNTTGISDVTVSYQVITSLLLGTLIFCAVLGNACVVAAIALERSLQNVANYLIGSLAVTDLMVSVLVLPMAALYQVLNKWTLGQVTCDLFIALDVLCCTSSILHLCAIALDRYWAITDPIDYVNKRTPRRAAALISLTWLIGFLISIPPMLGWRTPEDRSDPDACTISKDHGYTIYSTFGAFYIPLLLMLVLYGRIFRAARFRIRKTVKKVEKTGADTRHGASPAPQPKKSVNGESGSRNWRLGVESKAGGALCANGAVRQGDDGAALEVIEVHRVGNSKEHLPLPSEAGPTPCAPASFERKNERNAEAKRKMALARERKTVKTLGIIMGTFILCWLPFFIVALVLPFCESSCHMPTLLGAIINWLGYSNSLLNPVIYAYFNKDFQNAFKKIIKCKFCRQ

Adenosine receptor A3 = target: T2, Adenosine receptor A3 (Homo sapiens, UniProt P0DMS8)
T2 sequence (P0DMS8 whole entry): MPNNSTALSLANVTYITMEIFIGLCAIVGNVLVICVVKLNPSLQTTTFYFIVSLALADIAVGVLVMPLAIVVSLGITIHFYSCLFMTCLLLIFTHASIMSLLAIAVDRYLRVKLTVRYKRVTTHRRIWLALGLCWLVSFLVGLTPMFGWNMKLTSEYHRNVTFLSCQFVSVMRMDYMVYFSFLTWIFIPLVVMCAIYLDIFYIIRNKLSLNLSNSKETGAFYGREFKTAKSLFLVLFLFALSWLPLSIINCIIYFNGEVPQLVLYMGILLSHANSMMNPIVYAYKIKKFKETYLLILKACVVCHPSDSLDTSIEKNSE

[4] = target: Sodium-dependent noradrenaline transporter (Homo sapiens, UniProt P23975)
Chain of Sodium-dependent noradrenaline transporter (P23975 whole entry): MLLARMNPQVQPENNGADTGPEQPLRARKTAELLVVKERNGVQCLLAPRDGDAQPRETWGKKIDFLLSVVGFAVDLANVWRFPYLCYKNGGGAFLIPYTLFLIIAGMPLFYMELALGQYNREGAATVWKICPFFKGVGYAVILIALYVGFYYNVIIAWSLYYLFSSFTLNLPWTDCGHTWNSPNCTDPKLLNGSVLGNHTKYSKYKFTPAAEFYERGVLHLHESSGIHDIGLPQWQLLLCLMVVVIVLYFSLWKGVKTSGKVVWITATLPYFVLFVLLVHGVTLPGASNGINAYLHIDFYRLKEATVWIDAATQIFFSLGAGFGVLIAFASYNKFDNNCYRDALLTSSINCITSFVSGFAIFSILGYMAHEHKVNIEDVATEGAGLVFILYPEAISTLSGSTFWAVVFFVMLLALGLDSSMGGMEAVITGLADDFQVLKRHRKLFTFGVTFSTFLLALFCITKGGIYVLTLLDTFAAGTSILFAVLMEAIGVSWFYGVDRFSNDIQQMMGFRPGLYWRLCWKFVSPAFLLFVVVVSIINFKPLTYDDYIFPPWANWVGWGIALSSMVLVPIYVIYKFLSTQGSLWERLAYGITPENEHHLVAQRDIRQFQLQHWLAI

[5] = target: T3, Adrenergic receptor alpha-1 (Homo sapiens, UniProt P35348+P25100+P35368); type: protein assay
T3 sequence (P35348 whole entry): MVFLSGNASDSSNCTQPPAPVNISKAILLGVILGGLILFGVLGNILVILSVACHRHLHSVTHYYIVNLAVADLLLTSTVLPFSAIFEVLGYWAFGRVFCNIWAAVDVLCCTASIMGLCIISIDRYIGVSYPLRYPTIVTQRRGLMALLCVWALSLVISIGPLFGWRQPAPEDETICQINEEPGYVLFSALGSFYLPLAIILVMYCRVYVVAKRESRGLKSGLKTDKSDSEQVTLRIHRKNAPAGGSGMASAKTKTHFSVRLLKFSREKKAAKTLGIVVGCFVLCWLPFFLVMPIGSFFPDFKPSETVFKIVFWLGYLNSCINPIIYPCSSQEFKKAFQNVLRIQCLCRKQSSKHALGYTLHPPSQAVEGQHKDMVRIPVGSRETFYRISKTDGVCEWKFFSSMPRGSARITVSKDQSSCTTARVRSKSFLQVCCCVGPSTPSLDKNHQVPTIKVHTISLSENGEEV
T3 sequence (P25100 whole entry): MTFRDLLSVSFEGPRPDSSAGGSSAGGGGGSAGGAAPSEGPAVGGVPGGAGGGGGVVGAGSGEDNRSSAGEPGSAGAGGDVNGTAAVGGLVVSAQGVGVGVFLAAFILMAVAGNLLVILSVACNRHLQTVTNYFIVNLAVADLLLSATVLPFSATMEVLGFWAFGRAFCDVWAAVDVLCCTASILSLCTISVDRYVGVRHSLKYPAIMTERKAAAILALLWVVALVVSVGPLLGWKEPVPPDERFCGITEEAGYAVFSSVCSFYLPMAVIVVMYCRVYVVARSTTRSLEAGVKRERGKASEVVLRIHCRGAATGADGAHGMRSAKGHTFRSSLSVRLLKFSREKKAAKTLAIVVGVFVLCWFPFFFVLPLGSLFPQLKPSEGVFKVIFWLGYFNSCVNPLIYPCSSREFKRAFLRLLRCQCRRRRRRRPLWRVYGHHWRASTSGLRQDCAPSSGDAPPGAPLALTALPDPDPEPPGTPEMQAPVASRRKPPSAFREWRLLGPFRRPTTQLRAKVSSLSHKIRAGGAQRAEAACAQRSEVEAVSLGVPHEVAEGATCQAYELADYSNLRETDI
T3 sequence (P35368 whole entry): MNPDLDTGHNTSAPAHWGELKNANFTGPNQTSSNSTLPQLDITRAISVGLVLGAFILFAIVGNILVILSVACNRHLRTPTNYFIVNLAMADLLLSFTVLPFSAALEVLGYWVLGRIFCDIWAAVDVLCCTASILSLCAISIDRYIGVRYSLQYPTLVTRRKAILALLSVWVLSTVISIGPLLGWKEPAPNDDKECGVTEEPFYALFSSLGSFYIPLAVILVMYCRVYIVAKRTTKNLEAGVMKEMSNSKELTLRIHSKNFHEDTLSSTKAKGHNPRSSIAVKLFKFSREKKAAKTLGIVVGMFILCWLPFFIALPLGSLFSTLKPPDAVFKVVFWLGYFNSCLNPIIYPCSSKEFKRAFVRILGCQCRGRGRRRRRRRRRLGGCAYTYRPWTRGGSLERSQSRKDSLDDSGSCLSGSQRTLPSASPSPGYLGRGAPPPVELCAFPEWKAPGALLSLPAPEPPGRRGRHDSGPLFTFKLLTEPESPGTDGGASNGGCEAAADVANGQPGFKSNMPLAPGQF

Chain of Substance-K receptor (P21452 whole entry): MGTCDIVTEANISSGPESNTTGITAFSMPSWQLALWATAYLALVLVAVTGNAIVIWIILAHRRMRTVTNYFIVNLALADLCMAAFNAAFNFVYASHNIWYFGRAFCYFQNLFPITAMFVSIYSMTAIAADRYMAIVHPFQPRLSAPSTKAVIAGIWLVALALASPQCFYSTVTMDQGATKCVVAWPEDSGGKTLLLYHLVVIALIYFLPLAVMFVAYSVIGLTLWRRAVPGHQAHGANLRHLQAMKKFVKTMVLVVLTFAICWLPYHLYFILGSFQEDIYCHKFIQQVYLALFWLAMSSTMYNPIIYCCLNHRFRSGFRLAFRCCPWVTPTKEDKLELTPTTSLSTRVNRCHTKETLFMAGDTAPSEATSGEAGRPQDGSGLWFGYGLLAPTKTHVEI
Chain of D(1B) dopamine receptor (P21918 whole entry): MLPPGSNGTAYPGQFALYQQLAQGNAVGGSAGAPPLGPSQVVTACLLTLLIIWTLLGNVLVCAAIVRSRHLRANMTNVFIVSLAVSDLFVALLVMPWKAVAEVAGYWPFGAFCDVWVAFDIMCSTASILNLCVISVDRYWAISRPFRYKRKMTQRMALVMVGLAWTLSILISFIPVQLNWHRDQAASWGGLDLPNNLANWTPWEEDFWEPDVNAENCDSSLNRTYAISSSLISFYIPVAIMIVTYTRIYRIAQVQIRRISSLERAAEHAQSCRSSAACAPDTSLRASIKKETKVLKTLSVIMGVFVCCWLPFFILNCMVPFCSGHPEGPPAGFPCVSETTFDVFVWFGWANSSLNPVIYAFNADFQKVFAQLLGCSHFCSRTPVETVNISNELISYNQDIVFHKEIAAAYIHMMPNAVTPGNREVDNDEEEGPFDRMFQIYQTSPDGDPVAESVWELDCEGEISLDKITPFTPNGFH
Chain of Melatonin receptor type 1A (P48039 whole entry): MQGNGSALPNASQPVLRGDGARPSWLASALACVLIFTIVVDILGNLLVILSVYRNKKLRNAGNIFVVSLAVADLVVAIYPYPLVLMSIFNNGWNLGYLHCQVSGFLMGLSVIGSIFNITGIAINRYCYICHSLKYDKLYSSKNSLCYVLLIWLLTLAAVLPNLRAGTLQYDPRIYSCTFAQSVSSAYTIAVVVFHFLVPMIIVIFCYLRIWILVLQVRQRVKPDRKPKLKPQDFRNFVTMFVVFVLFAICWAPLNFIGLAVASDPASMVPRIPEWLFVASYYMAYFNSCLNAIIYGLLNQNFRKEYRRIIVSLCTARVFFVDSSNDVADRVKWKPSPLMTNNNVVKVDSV
Chain of Vasopressin V1a receptor (P37288 whole entry): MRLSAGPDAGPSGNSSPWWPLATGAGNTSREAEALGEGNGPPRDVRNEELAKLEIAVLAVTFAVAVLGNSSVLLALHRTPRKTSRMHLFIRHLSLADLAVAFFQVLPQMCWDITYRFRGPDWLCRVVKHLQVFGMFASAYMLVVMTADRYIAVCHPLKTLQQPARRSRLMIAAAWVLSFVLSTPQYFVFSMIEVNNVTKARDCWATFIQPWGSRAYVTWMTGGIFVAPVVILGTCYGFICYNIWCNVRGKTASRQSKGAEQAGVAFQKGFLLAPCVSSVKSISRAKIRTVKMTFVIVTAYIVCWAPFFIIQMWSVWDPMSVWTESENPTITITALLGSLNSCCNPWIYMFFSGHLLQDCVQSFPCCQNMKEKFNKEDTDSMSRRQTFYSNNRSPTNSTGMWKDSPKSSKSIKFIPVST
Chain of 5-hydroxytryptamine receptor 1B (P28222 whole entry): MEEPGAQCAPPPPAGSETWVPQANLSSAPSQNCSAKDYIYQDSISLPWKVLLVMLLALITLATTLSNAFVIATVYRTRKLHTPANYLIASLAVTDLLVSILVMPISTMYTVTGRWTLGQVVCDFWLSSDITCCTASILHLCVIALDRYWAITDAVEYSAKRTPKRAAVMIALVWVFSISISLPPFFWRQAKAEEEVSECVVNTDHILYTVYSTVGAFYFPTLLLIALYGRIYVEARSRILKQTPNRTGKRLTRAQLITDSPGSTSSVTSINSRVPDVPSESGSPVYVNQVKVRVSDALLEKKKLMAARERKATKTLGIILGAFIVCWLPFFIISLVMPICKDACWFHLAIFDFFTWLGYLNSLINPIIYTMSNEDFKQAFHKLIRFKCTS

SMILES: O=C(OCc1cc2c(cc1Cl)OCO2)N1CCC(n2c(O)nc3ccccc32)CC1
- IC50 (Substance-K receptor): 4.42 µM
- IC50 [1]: 1.74 µM
- IC50 (D(1B) dopamine receptor): 4.89 µM
- IC50 [2]: 0.708 µM
- IC50 (Vasopressin V1a receptor): 2.22 µM
- IC50 (Adenosine receptor A1): 2.64 µM
- IC50 (D(1A) dopamine receptor): 7.58 µM
- IC50 (Translocator protein): 1.04 µM
- IC50 [3]: 4.65 µM
- IC50 (Adenosine receptor A3): 1.78 µM
- IC50 [4]: 3.02 µM
- IC50 [5]: 1.34 µM
